# The source made the active and inactive calls. The calls are words filed in the database; no cut-off is given here.
# Columns and labels:
# [1] = Therapeutic index, ratio of MHC for human RBC to geometric mean of peptide MIC for Streptococcus agalactiae H92; format: toxicity; settings: human red blood cells (RBC), read-out: TI
# [2] = Therapeutic index, ratio of MHC for human RBC to geometric mean of peptide MIC for Staphylococcus epidermidis ATCC 12228; format: toxicity; settings: human red blood cells (RBC), read-out: TI
# [3] = Therapeutic index, ratio of MHC for human RBC to geometric mean of peptide MIC for methicillin-resistant Staphylococcus aureus 43300; format: toxicity; settings: human red blood cells (RBC), read-out: TI
# [4] = Therapeutic index, ratio of MHC for human RBC to geometric mean of peptide MIC for Enterococcus faecalis ATCC 29212; format: toxicity; settings: human red blood cells (RBC), read-out: TI
# [5] = Therapeutic index, ratio of MHC for human RBC to geometric mean of peptide MIC for Staphylococcus aureus ATCC 29213; format: toxicity; settings: human red blood cells (RBC), read-out: TI
# [6] = Therapeutic index, ratio of MHC for human RBC to geometric mean of peptide MIC for Staphylococcus aureus 11011; format: toxicity; settings: human red blood cells (RBC), read-out: TI
# [7] = Therapeutic index, ratio of MHC for human RBC to geometric mean of peptide MIC for Salmonella pullorum 7913; format: toxicity; settings: human red blood cells (RBC), read-out: TI
# [8] = Therapeutic index, ratio of MHC for human RBC to geometric mean of peptide MIC for Salmonella typhimurium 7731; format: toxicity; settings: human red blood cells (RBC), read-out: TI
# [9] = Therapeutic index, ratio of MHC for human RBC to geometric mean of peptide MIC for Salmonella choleraesuis 503; format: toxicity; settings: human red blood cells (RBC), read-out: TI
# [10] = Therapeutic index, ratio of MHC for human RBC to geometric mean of peptide MIC for Escherichia coli UB1005; format: toxicity; settings: human red blood cells (RBC), read-out: TI
# [11] = Therapeutic index, ratio of MHC for human RBC to geometric mean of peptide MIC for Salmonella typhimurium 14028; format: toxicity; settings: human red blood cells (RBC), read-out: TI
# [12] = Therapeutic index, ratio of MHC for human RBC to geometric mean of peptide MIC for Escherichia coli ATCC 25922; format: toxicity; settings: human red blood cells (RBC), read-out: TI
# [13] = Antibacterial activity against Salmonella pullorum 7913 after 18 to 24 hrs by CLSI-based broth microdilution method; format: functional, Salmonella enterica subsp. enterica serovar Pullorum; settings: Salmonella enterica, time hrs 18-24
# Salmonella enterica = assay: Antibacterial activity against Salmonella choleraesuis 503 after 18 to 24 hrs by CLSI-based broth microdilution method; format: functional; settings: time hrs 18-24
# Enterococcus faecalis = assay: Antibacterial activity against Enterococcus faecalis ATCC 29212 after 18 to 24 hrs by CLSI-based broth microdilution method; format: functional; settings: time hrs 18-24
# Streptococcus agalactiae = assay: Antibacterial activity against Streptococcus agalactiae H92 after 18 to 24 hrs by CLSI-based broth microdilution method; format: functional; settings: time hrs 18-24
# Erythrocyte = assay: Hemolytic activity in human RBC assessed as hemolysis; format: ADME, cell-based
# [14] = Hemolytic activity in human RBC assessed as hemolysis at 1 to 128 uM relative to control; format: ADME, cell-based, Erythrocyte; settings: human red blood cells (RBC), dose 1-128 µM, read-out: Activity
# [15] = Hemolytic activity in human RBC assessed as hemolysis at 1 uM relative to control; format: ADME, cell-based, Erythrocyte; settings: human red blood cells (RBC), read-out: Activity
# RAW264.7 = assay: Cytotoxicity against mouse RAW264.7 cells assessed as reduction in cell viability lower concentration by MTT assay; format: cell-based
# HEK-293T = assay: Cytotoxicity against HEK-293T cells assessed as reduction in cell viability at lower concentration by MTT assay; format: cell-based; settings: human
# [16] = Stability of compound at 100 degreeC after 30 to 90 mins; format: physicochemical; settings: time 30-90 min
# Escherichia coli [17] = assay: Antibacterial activity against Escherichia coli ATCC 25922 measured after 18 to 24 hrs in presence of trypsin by CLSI-based broth microdilution method; format: functional, organism-based; settings: time hrs 18-24
# Escherichia coli [18] = assay: Antibacterial activity against Escherichia coli ATCC 25922 measured after 18 to 24 hrs in presence of chymotrypsin by CLSI-based broth microdilution method; format: functional, organism-based; settings: time hrs 18-24
# Escherichia coli [19] = assay: Antibacterial activity against Escherichia coli ATCC 25922 measured after 18 to 24 hrs in presence of pepsin by CLSI-based broth microdilution method; format: functional, organism-based; settings: time hrs 18-24
# Escherichia coli [20] = assay: Antibacterial activity against Escherichia coli ATCC 25922 measured after 18 to 24 hrs in presence of proteinase K by CLSI-based broth microdilution method; format: functional, organism-based; settings: time hrs 18-24
# Staphylococcus aureus [21] = assay: Antibacterial activity against Staphylococcus aureus 29213 with 0.0625-2 mg/mL trypsin for 1 hr followed by test compound addition measured after 4 to 8 hrs by CLSI-based broth microdilution method; format: functional, organism-based; settings: time hrs 4-8
# Staphylococcus aureus [22] = assay: Antibacterial activity against Staphylococcus aureus 29213 with 0.0625-2 mg/mL chymotrypsin for 1 hr followed by test compound addition measured after 4 to 8 hrs by CLSI-based broth microdilution method; format: functional, organism-based; settings: time hrs 4-8
# Staphylococcus aureus [23] = assay: Antibacterial activity against Staphylococcus aureus 29213 with 0.0625-2 mg/mL pepsin for 1 hr followed by test compound addition measured after 4 to 8 hrs by CLSI-based broth microdilution method; format: functional, organism-based; settings: time hrs 4-8
# Staphylococcus aureus [24] = assay: Antibacterial activity against Staphylococcus aureus 29213 with 0.0625-2 mg/mL proteinase K for 1 hr followed by test compound addition measured after 4 to 8 hrs by CLSI-based broth microdilution method; format: functional, organism-based; settings: time hrs 4-8
# Trypsin [25] = target: T1, Trypsin (Homo sapiens, UniProt P07477+P07478+P35030); assay: Stability of compound assessed as trypsin (unknown origin)-mediated drug degradation after 1 hr by RP-HPLC analysis; format: ADME, protein assay
# [26] = Stability of compound assessed as chymotrypsin (unknown origin)-mediated drug degradation after 1 hr by RP-HPLC analysis; format: ADME; settings: human
# [27] = Stability of compound assessed as pepsin (unknown origin)-mediated drug degradation after 1 hr by RP-HPLC analysis; format: ADME; settings: human
# [28] = Stability of compound assessed as proteinase K (unknown origin)-mediated drug degradation after 1 hr by RP-HPLC analysis; format: ADME; settings: human
# Trypsin [29] = target: T1, Trypsin; assay: Stability of compound assessed as trypsin (unknown origin)-mediated drug degradation after 1 hr by SDS-PAGE analysis; format: ADME, protein assay
# [30] = Stability of compound assessed as chymotrypsin (unknown origin)-mediated drug degradation after 1 hr by SDS-PAGE analysis; format: ADME; settings: human
# [31] = Stability of compound assessed as pepsin (unknown origin)-mediated drug degradation after 1 hr by SDS-PAGE analysis; format: ADME; settings: human
# [32] = Stability of compound assessed as proteinase K (unknown origin)-mediated drug degradation after 1 hr by SDS-PAGE analysis; format: ADME; settings: human
# Cell membrane = assay: Induction of outer membrane permeabilization in Escherichia coli ATCC 25922 after 30 mins by NPN-dye based assay
smiles,measurement,setting,value
CC[C@H](C)[C@H](NC(=O)CN)C(=O)NCC(=O)N[C@@H](C)C(=O)N[C@H](C(=O)N[C@@H](CC(C)C)C(=O)N[C@@H](CCCCN)C(=O)N[C@H](C(=O)N[C@@H](CC(C)C)C(=O)N[C@H](C(=O)N[C@H](C(=O)NCC(=O)N[C@@H](CC(C)C)C(=O)N1CCC[C@H]1C(=O)N[C@@H](C)C(=O)N[C@@H](CC(C)C)C(=O)N[C@H](C(=O)N[C@@H](CO)C(=O)N[C@@H](Cc1c[nH]c2ccccc12)C(=O)N[C@H](C(=O)N[C@@H](CCCCN)C(=O)N[C@@H](CCCNC(=N)N)C(=O)N[C@@H](CCCCN)C(=O)N[C@@H](CCCNC(=N)N)C(=O)N[C@@H](CCC(N)=O)C(=O)N[C@@H](CCC(N)=O)C(N)=O)[C@@H](C)CC)[C@@H](C)CC)[C@@H](C)O)[C@@H](C)O)C(C)C)C(C)C [MELITTIN],selectivity ratio,[1],0.56
same,selectivity ratio,[2],0.56
same,selectivity ratio,[3],0.56
same,selectivity ratio,[4],0.56
same,selectivity ratio,[5],0.56
same,selectivity ratio,[6],0.56
same,selectivity ratio,[7],0.4
same,selectivity ratio,[8],0.4
same,selectivity ratio,[9],0.4
same,selectivity ratio,[10],0.4
same,selectivity ratio,[11],0.4
same,selectivity ratio,[12],0.4
same,MIC,[13],4 µM
same,MIC,Salmonella enterica,4 µM
same,MIC,Enterococcus faecalis,2 µM
same,MIC,Streptococcus agalactiae,1 µM
same,MHC,Erythrocyte,1 µM
same,hemolysis at up to 128 µM,[14],< 5%
same,hemolysis at 1 µM,[15],10.1%
same,Activity,RAW264.7,Toxic
same,Activity,HEK-293T,Toxic
same,Stabilty,[16],Stable
same,Activity,Escherichia coli [17],inactive
same,Activity,Escherichia coli [18],inactive
same,Activity,Escherichia coli [19],inactive
same,Activity,Escherichia coli [20],inactive
same,Activity,Staphylococcus aureus [21],inactive
same,Activity,Staphylococcus aureus [22],inactive
same,Activity,Staphylococcus aureus [23],inactive
same,Activity,Staphylococcus aureus [24],inactive
same,Stabilty,Trypsin [25],Unstable
same,Stabilty,[26],Unstable
same,Stabilty,[27],Unstable
same,Stabilty,[28],Unstable
same,Stabilty,Trypsin [29],Unstable
same,Stabilty,[30],Unstable
same,Stabilty,[31],Unstable
same,Stabilty,[32],Unstable
same,Activity,Cell membrane,Dose-dependent effect

# Source: ChEMBL document CHEMBL4665709, “Rational Avoidance of Protease Cleavage Sites and Symmetrical End-Tagging Significantly Enhances the Stability and Therapeutic Potential of Antimicrobial Peptides” (J Med Chem, 2020)
